This test concerns HT-29 cells. The experiment in a line: HT-29 necroptosis cell viability assay (TNF-α/SMAC mimetic/zVAD-FMK, CellTiter-Glo). The class given is cell-based. The settings on record: Homo sapiens. The protocol: Compounds 1-702 of the disclosure were tested for biological activity, following the experimental procedures described below.
• Cell line: HT-29 (ATCC® HTB-38™) • Culture medium: McCOY's 5A, Gibco, Cat No. 16600-082 • FBS, Gibco, Cat No. 10099-141 C • Trypsin: Gibco, Cat No. 25200-056 • DMSO: Sigma, Cat No. 67-68-5, 1L • Assay plate: Corning #3903 • Compound dilution plate: Corning #3357 • Inducers: TNFα, GenScript, Cat No. Z01001-50, • SmacM, Cat. No., HY-15989, MedChemExpress (MCE) • Z_VAD FMK, TargetMol, T6013 • Cell Titer-Glo® Luminescent Cell Viability Assay Kit: Promega, Cat No. G7573 • EnVision: PerkinElmer, 2105-0010
• 1. HT-29 cells were checked every day to make sure that they were healthy and growing as expected. They were subjected to sub-culturing when they were approximately 80% confluent. • 2. The culture medium, McCOY's 5A medium (Gibco, Cat No. 16600-082) with 10% fetal bovine serum or FBS (Gibco, Cat No. 10099-141C), was pre-warmed in a 37° C. water bath for at least 30 min. • 3. When the cells had reached a desired level of confluency of 80% in a T75 flask, the medium was aspirated, and the cells were washed with warm phosphate buffered saline or PBS two times. • 4. 2-3 ml fresh warm trypsin (Gibco, Cat No. 25200-056) solution was added to the washed cells. The flask with the cells was transferred to a 37° C. incubator. • 5. After 5 minutes, the side of the flask was tapped, and the flask was examined under a microscope for detachment of the cells to the flask. If necessary, the cells were kept in the incubator for an additional 5-10 minutes, with occasional tapping, until lifting was complete. • 6. The trypsin reaction was neutralized by transferring 6-9 ml cell culture medium to sterile 15 ml conical tubes, and by centrifuging the cell culture at 300×g for 7 minutes to pellet the cells (supernatant decanted). • 7. The cells were resuspended in fresh cell culture medium and the cell counting was performed using a hemocytometer. • 8. 100 μl of the resuspended cell culture medium containing ˜5,000 cells were transferred into each well of the sterile 96-well cell culture plate (Corning 3903) and cultured overnight at 37° C. with 5% CO2.
• 1. All test compounds were dissolved in DMSO (Dimethyl sulfoxide) to create a 20 mM stock. • 2. 3 μl of 20 mM stock of each compound was mixed with 27 μl DMSO, and the compound solution was further diluted at a titration ratio of 1:3 (20 μl compound solution+40 μl DMSO) till the 10 points end. • 3. All culture medium was removed from assay plates filled with HT-29 cell cultures. The cells were then washed with 1 PBS, and resuspsended in fresh, FBS-free McCOY's 5A medium containing a cocktail of TNF-α (10 ng/ml), a SMAC mimetic compound (6 μM) and Z-VAD-fluoromethylketone or zVAD-FMK (10 μM) to stimulate the HT-29 cells to increase RIP1 kinase levels and necroptosis. • 4. 0.5 μL of the diluted compound solution was added to the corresponding 96-well assay plates. • 5. The assay plates were incubated for 20 hours at 37° C. with 5% CO2.
• 1. The CellTiter-Glo® Luminescent Cell Viability Assay was employed to detect the ATP levels of viable HT-29 cells. • 2. The CellTiter-Glo® buffer and the lyophilized substrate were equilibrated to room temperature prior to use. • 3. The CellTiter-Glo® substrate was resuspended with CellTiter-Glo® buffer, then mixed by gently vortexing to obtain a homogeneous solution. • 4. 20 μl of the enzyme/substrate mixture was transferred by multi-channel pipetting into 96-well assay plates. • 5. The assay plates were placed on an orbital shaker and the contents were shaken for 3 minutes to induce cell lysis. • 6. The assay plates were incubated at room temperature for 10 minutes to stabilize the luminescent signal. • 7. The luminescence signals were read and recorded with EnVision. • 8. The geometric mean IC50 values were calculated from 10 points response dose with duplicates. […]
A general note: In ATP-based viability assays light output follows the ATP content of the culture.

Where [1] appears, read: HT-29, HT-29 necroptosis cell viability, IC50 class symbols, read-out: Activity.
[2] abbreviates: HT-29 cells stimulated with TNF-α (10 ng/ml), SMAC mimetic (6 μM) and zVAD-FMK (10 μM), 20 hours, CellTiter-Glo ATP luminescence, geometric mean IC50 from 10 points, read-out: Activity.
[3] abbreviates: HT-29, HT-29 necroptosis cell viability assay, class symbols for IC50, read-out: Activity.
[4] abbreviates: HT-29, HT-29 cells, necroptosis induced by TNF-α/SMAC mimetic/zVAD-FMK, CellTiter-Glo, read-out: Activity (IC50 class).

Like-named read-outs stand apart in the source and are kept apart here.

Turning to `Cc1nc(C(C)O)sc1Oc1ccc(-n2ncn(Cc3c(F)cccc3F)c2=O)cc1` (racemic) [Example 459, 4-(2,6-difluorobenzyl)-2-(4-((2-(1-hydroxyethyl)-4-methylthiazol-5-yl)oxy)phenyl)-2,4-dihydro-3H-1,2,4-triazol-3-one], under setting [1], the IC50 was less than 0.1 µM.

For `Cc1ncsc1Oc1ccc(-n2nc3n(c2=O)[C@H](c2ccccc2)CC3)cc1F` (single isomer, unassigned) [Example 3], under setting [2], the IC50 is less than 0.1 µM.

As for `Cc1ncsc1Oc1ccc(-n2nc3n(c2=O)[C@@H](c2ccccc2)CC3)cc1F` (single isomer, unassigned) [Example 4], the IC50 under setting [2] was less than 0.1 µM.

Regarding `Cc1nc(C(N)=O)sc1Oc1ccc(-n2nc3n(c2=O)[C@H](c2ccccc2)CC3)cc1F` (single isomer, unassigned) [Example 14], the IC50 under setting [2] is less than 0.1 µM.

With `Cc1nc(C(N)=O)sc1Oc1ccc(-n2nc3n(c2=O)[C@@H](c2ccccc2)CC3)cc1F` (single isomer, unassigned) [Example 15], under setting [2], the IC50 was in the range of 0.1 to 1 µM.

Regarding `Cc1nc(C(N)=O)sc1Oc1ccc(-n2nc3n(c2=O)[C@H](c2ccccc2)CC3)cc1Cl` (single isomer, unassigned) [Example 16], the IC50 under setting [2] is less than 0.1 µM.

As to `Cc1nc(C(N)=O)sc1Oc1ccc(-n2nc3n(c2=O)[C@H](c2ccccc2)CC3)cc1` (single isomer, unassigned) [Example 17], under setting [2], the IC50 was less than 0.1 µM.

Consider `Cc1nc(C(=O)NC2CCOC2)sc1Oc1ccc(-n2nc3n(c2=O)[C@H](c2ccccc2)CC3)cc1F` (single isomer, unassigned) [Example 18], for which, under setting [2], the IC50 was less than 0.1 µM.

With `Cn1nc(C(N)=O)cc1Oc1ccc(-n2nc3n(c2=O)[C@H](c2ccccc2)CC3)cc1F` (single isomer, unassigned) [Example 30], the IC50 under setting [2] was less than 0.1 µM.

For the molecule `COC(=O)c1nc(C)c(Oc2ccc(-n3nc4n(c3=O)[C@@H](c3ccccc3)CC4)cc2F)s1` (single isomer, unassigned) [Example 35], under setting [2], the IC50 lay within 1 to 10 µM.

With `COC(=O)c1nc(C)c(Oc2ccc(-n3nc4n(c3=O)[C@H](c3ccccc3)CC4)cc2F)s1` (single isomer, unassigned) [Example 36], the IC50 under setting [2] was less than 0.1 µM.

With `Cc1nc(C(C)O)sc1Oc1ccc(-n2nc3n(c2=O)[C@H](c2ccccc2)CC3)cc1F` (single isomer, unassigned) [Example 149], under setting [3], the IC50 is less than 0.1 µM.

As for `Cc1nc([C@@H](C)O)sc1Oc1ccc(-n2nc3n(c2=O)[C@H](c2ccccc2)CC3)cc1F` (single isomer, unassigned) [Example 150], the IC50 under setting [3] was less than 0.1 µM.

As to `Cc1nc([C@H](C)O)sc1Oc1ccc(-n2nc3n(c2=O)[C@H](c2ccccc2)CC3)cc1F` (single isomer, unassigned) [Example 151], the IC50 under setting [3] was less than 0.1 µM.

On to `C[C@H]1[C@@H](O)CN1c1cc(Oc2ccc(-n3nc4n(c3=O)[C@H](c3ccccc3)CC4)cc2F)c(F)cn1` (single isomer, unassigned) [Example 258], for which the IC50 under setting [1] is less than 0.1 µM.

Turning to `Cc1nc([C@H](C)O)sc1Oc1ccc(-n2ncn(Cc3c(F)cccc3F)c2=O)cc1F` (single isomer, unassigned) [Example 460], under setting [1], the IC50 is less than 0.1 µM.

For `Cc1nc([C@@H](C)O)sc1Oc1ccc(-n2ncn(Cc3c(F)cccc3F)c2=O)cc1F` (single isomer, unassigned) [Example 461], the IC50 under setting [1] was less than 0.1 µM.

As for `Cc1nc(C(=O)N2CCOCC2)sc1Oc1ccc(-n2nc3n(c2=O)[C@H](c2ccccc2)CC3)cc1F` (single isomer, unassigned) [Example 601], the IC50 under setting [3] was less than 0.1 µM.

`Cc1nc(C(=O)NC2CCOCC2)sc1Oc1ccc(-n2nc3n(c2=O)[C@H](c2ccccc2)CC3)cc1F` (single isomer, unassigned) [Example 602]: under setting [3], the IC50 was less than 0.1 µM.

`Cc1ncsc1OC1CCC(n2nc3n(c2=O)[C@H](c2ccccc2)CC3)CC1` (single isomer, unassigned) [Example 636]: under setting [4], the IC50 fell in the range of 0.1 to 1 µM.

For `Cc1nc(C(N)=O)sc1Oc1ncc(-n2nc3n(c2=O)[C@H](c2ccccc2)CC3)cc1F` (single isomer, unassigned) [Example 638], the IC50 under setting [4] was less than 0.1 µM.

For `Cc1nc(C(N)=O)sc1Oc1ncc(-n2nc3n(c2=O)[C@@H](c2ccccc2)CC3)cc1F` (single isomer, unassigned) [Example 639], the IC50 under setting [4] was in the range of 0.1 to 1 µM.

`Cc1nc(C(N)=O)sc1Oc1ncc(-n2nc3n(c2=O)[C@H](c2ccccc2)CC3)cc1Cl` (single isomer, unassigned) [Example 640]: under setting [4], the IC50 is less than 0.1 µM.

`Cc1nc(C(N)=O)sc1Oc1ncc(-n2nc3n(c2=O)[C@@H](c2ccccc2)CC3)cc1Cl` (single isomer, unassigned) [Example 641]: the IC50 under setting [4] fell in the range of 1 to 10 µM.

Regarding `Cc1nc(C(N)=O)sc1Oc1ccc(-n2nc3n(c2=O)[C@H](c2ccc(F)cc2)CC3)cc1F` (single isomer, unassigned) [Example 668], the IC50 under setting [4] is less than 0.1 µM.

As to `Cc1nc(C(N)=O)sc1Oc1ccc(-n2nc3n(c2=O)[C@@H](c2ccc(F)cc2)CC3)cc1F` (single isomer, unassigned) [Example 669], the IC50 under setting [4] lay in the range of 1 to 10 µM.

For `NC(=O)c1ncc(Oc2ccc(-n3nc4n(c3=O)[C@H](c3ccccc3)CC4)cc2F)s1` (single isomer, unassigned) [Example 670], under setting [4], the IC50 was less than 0.1 µM.

Turning to `Cn1cc(C(N)=O)nc1Oc1ccc(-n2nc3n(c2=O)[C@H](c2ccccc2)CC3)cc1F` (single isomer, unassigned) [Example 685], the IC50 under setting [2] fell in the range of 0.1 to 1 µM.

For `CCc1c(Oc2ccc(-n3nc4n(c3=O)[C@H](c3ccccc3)CC4)cc2F)nsc1C(N)=O` (single isomer, unassigned) [Example 686], the IC50 under setting [2] is less than 0.1 µM.

Regarding `NC(=O)c1nnc(Oc2ccc(-n3nc4n(c3=O)[C@H](c3ccccc3)CC4)cc2F)s1` (single isomer, unassigned) [Example 687], the IC50 under setting [2] was less than 0.1 µM.

As to `NC(=O)c1coc(Oc2ccc(-n3nc4n(c3=O)[C@H](c3ccccc3)CC4)cc2F)n1` (single isomer, unassigned) [Example 688], under setting [2], the IC50 fell in the range of 0.1 to 1 µM.

As to `Cc1cc(C(N)=O)sc1Oc1ccc(-n2nc3n(c2=O)[C@H](c2ccccc2)CC3)cc1F` (single isomer, unassigned) [Example 689], the IC50 under setting [2] was less than 0.1 µM.

As to `Cc1c(Oc2ccc(-n3nc4n(c3=O)[C@H](c3ccccc3)CC4)cc2F)noc1C(N)=O` (single isomer, unassigned) [Example 690], the IC50 under setting [2] is less than 0.1 µM.

Turning to `NC(=O)c1nnc(Oc2ccc(-n3nc4n(c3=O)[C@H](c3ccccc3)CC4)cc2F)o1` (single isomer, unassigned) [Example 691], the IC50 under setting [2] was in the range of 1 to 10 µM.

Take `Cn1nc(C(N)=O)nc1Oc1ccc(-n2nc3n(c2=O)[C@H](c2ccccc2)CC3)cc1F` (single isomer, unassigned) [Example 692]: the IC50 under setting [2] was less than 0.1 µM.

Regarding `Cc1nc(C(N)=O)n(C)c1Oc1ccc(-n2nc3n(c2=O)[C@H](c2ccccc2)CC3)cc1F` (single isomer, unassigned) [Example 693], the IC50 under setting [2] was less than 0.1 µM.

The values are drawn from patent US20250179061A1 (SIRONAX LTD., priority 2022, published 2025).
